Drawing on US12310975B2, “Modulators of BCL6 proteolysis and associated methods of use” (Arvinas Operations, Inc., priority 2019, dated 2025), this text covers IC50 and Dmax for 15 compounds.

The target of test [1] is T1, BCL6 (Homo sapiens (Human), UniProt P41182). Put plainly: BCL6 TR-FRET assay (BCL6-Avitag-Biotin / BCoR-Cy5 peptide). It counts as binding. The settings on record: read-out: IC50. The procedure, abridged: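 After 30 min room-temperature preincubation of compound titrations with 2 nM biotinylated BCL6-Avitag, 100 nM Cy5-labelled BCoR peptide plus 2 nM Eu-streptavidin were added and TR-FRET read 2 h later. HEPES pH 7.5/125 mM NaCl buffer with Triton X, glutathione (or DTT) and BSA.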
Background: TR-FRET usually uses a lanthanide donor and a delayed reading to cut background.

Test [2] addresses T1, BCL6. Put plainly: Immunofluorescence high content imaging of BCL6 degradation in T47D cells. It counts as cell-based. As to conditions: T47D. The procedure, abridged: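 T47D, 3 d compound exposure, 11-pt 3-fold series, top 0.1 or 1 μM final. Fix 4% PFA, Triton permeabilize, anti-BCL6 primary overnight 4 °C, Alexa-488 secondary. High-content imaging 10×, 4 fields/well, top-hat smoothing.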

`CNC(=O)COc1cc2cc(Nc3nc(N4CCC5(CN(CC6CCN(c7cccc8c7C(=O)N(C7CCC(=O)NC7=O)C8=O)CC6)C5)C4)ncc3Cl)ccc2n(C(C)C)c1=O` (stereo not drawn) [compound 519, 2-{[6-({5-chloro-2-[2-({1-[2-(2,6-dioxopiperidin-3-yl)-1,3-dioxo-2,3-dihydro-1H-isoindol-4-yl]piperidin-4-yl}methyl)-2,6-diazaspiro[3.4]octan-6-yl]pyrimidin-4-yl}amino)-2-oxo-1-(propan-2-yl)-1,2-dihydroquinolin-3-yl]oxy}-N-methylacetamide]: the half-inhibitory concentration (IC50) (usually the point on the concentration scale where inhibition reaches its midpoint) on BCL6 [1] is less than 0.01 µM. On BCL6 [2], the Dmax (usually the greatest extent of degradation seen) was not below 70%.
Taken in the same sequence, the figures for `CNC(=O)COc1cc2cc(Nc3nc(N4CCC5(CC4)CCN(C4CCN(c6cccc7c6C(=O)N(C6CCC(=O)NC6=O)C7=O)CC4)C5)ncc3Cl)ccc2n(C(C)C)c1=O` (stereo not drawn) [compound 520, 2-[(6-{[5-chloro-2-(2-{1-[2-(2,6-dioxopiperidin-3-yl)-1,3-dioxo-2,3-dihydro-1H-isoindol-4-yl]piperidin-4-yl}-2,8-diazaspiro[4.5]decan-8-yl)pyrimidin-4-yl]amino}-2-oxo-1-(propan-2-yl)-1,2-dihydroquinolin-3-yl)oxy]-N-methylacetamide] were less than 0.01 µM and less than 50%.
Turning to `CNC(=O)COc1cc2cc(Nc3nc(N4CCC(N5CCC6(CCN(c7ccc8c(c7)C(=O)N(C7CCC(=O)NC7=O)C8=O)CC6)C5)CC4)ncc3Cl)ccc2n(C(C)C)c1=O` (stereo not drawn) [compound 521, 2-[(6-{[5-chloro-2-(4-{8-[2-(2,6-dioxopiperidin-3-yl)-1,3-dioxo-2,3-dihydro-1H-isoindol-5-yl]-2,8-diazaspiro[4.5]decan-2-yl}piperidin-1-yl)pyrimidin-4-yl]amino}-2-oxo-1-(propan-2-yl)-1,2-dihydroquinolin-3-yl)oxy]-N-methylacetamide], the concentration for half-maximal inhibition (IC50) on BCL6 [1] is less than 0.01 µM. This compound gave a maximal degradation (Dmax) at BCL6 [2] of 50 to 70%.
For `CNC(=O)COc1cc2cc(Nc3nc(N4CCN(CC5CC6(C5)CN(c5ccc7c(c5)C(=O)N(C5CCC(=O)NC5=O)C7=O)C6)CC4)ncc3Cl)ccc2n(C(C)C)c1=O` (stereo not drawn) [compound 523, 2-{[6-({5-chloro-2-[4-({2-[2-(2,6-dioxopiperidin-3-yl)-1,3-dioxo-2,3-dihydro-1H-isoindol-5-yl]-2-azaspiro[3.3]heptan-6-yl}methyl)piperazin-1-yl]pyrimidin-4-yl}amino)-2-oxo-1-(propan-2-yl)-1,2-dihydroquinolin-3-yl]oxy}-N-methylacetamide], the IC50 on BCL6 [1] is less than 0.01 µM. Besides, the Dmax at BCL6 [2] fell in the range of 50 to 70%.
Consider `CNC(=O)COc1cc2cc(Nc3nc(N4CCN(CC5CN(C6CCN(c7cccc8c7C(=O)N(C7CCC(=O)NC7=O)C8=O)CC6)C5)CC4)ncc3Cl)ccc2n(C(C)C)c1=O` (stereo not drawn) [compound 524, 2-({6-[(5-chloro-2-{4-[(1-{1-[2-(2,6-dioxopiperidin-3-yl)-1,3-dioxo-2,3-dihydro-1H-isoindol-4-yl]piperidin-4-yl}azetidin-3-yl)methyl]piperazin-1-yl}pyrimidin-4-yl)amino]-2-oxo-1-(propan-2-yl)-1,2-dihydroquinolin-3-yl}oxy)-N-methylacetamide], for which the IC50 on BCL6 [1] is less than 0.01 µM. Also, the greatest degradation seen (Dmax) at BCL6 [2] fell in the range of 50 to 70%.
With `CNC(=O)COc1cc2cc(Nc3nc(N4CCC(OC5CN(C6CCN(c7cccc8c7C(=O)N(C7CCC(=O)NC7=O)C8=O)CC6)C5)CC4)ncc3Cl)ccc2n(C(C)C)c1=O` (stereo not drawn) [compound 525, 2-({6-[(5-chloro-2-{4-[(1-{1-[2-(2,6-dioxopiperidin-3-yl)-1,3-dioxo-2,3-dihydro-1H-isoindol-4-yl]piperidin-4-yl}azetidin-3-yl)oxy]piperidin-1-yl}pyrimidin-4-yl)amino]-2-oxo-1-(propan-2-yl)-1,2-dihydroquinolin-3-yl}oxy)-N-methylacetamide], the IC50 on BCL6 [1] was less than 0.01 µM. The compound further had a Dmax at BCL6 [2] of 50 to 70%.
For `CNC(=O)COc1cc2cc(Nc3nc(N4CCC(OC5CN(C6CCN(c7ccc8c(c7)C(=O)N(C7CCC(=O)NC7=O)C8=O)CC6)C5)CC4)ncc3Cl)ccc2n(C(C)C)c1=O` (stereo not drawn) [compound 526, 2-({6-[(5-chloro-2-{4-[(1-{1-[2-(2,6-dioxopiperidin-3-yl)-1,3-dioxo-2,3-dihydro-1H-isoindol-5-yl]piperidin-4-yl}azetidin-3-yl)oxy]piperidin-1-yl}pyrimidin-4-yl)amino]-2-oxo-1-(propan-2-yl)-1,2-dihydroquinolin-3-yl}oxy)-N-methylacetamide] the same measures were less than 0.01 µM and 50 to 70%.
For `CNC(=O)COc1cc2cc(Nc3nc(N4CCC(N5CCC6(CCN(c7cccc8c7C(=O)N(C7CCC(=O)NC7=O)C8=O)CC6)C5)CC4)ncc3Cl)ccc2n(C(C)C)c1=O` (stereo not drawn) [compound 527, 2-[(6-{[5-chloro-2-(4-{8-[2-(2,6-dioxopiperidin-3-yl)-1,3-dioxo-2,3-dihydro-1H-isoindol-4-yl]-2,8-diazaspiro[4.5]decan-2-yl}piperidin-1-yl)pyrimidin-4-yl]amino}-2-oxo-1-(propan-2-yl)-1,2-dihydroquinolin-3-yl)oxy]-N-methylacetamide], the concentration for half-maximal inhibition (IC50) at BCL6 [1] is less than 0.01 µM. At BCL6 [2], this compound yielded a Dmax of 50 to 70%.
On to `CNC(=O)COc1cc2cc(Nc3nc(N4CCN(CC5CC6(C5)CN(c5cccc7c5C(=O)N(C5CCC(=O)NC5=O)C7=O)C6)CC4)ncc3Cl)ccc2n(C(C)C)c1=O` (stereo not drawn) [compound 529, 2-{[6-({5-chloro-2-[4-({2-[2-(2,6-dioxopiperidin-3-yl)-1,3-dioxo-2,3-dihydro-1H-isoindol-4-yl]-2-azaspiro[3.3]heptan-6-yl}methyl)piperazin-1-yl]pyrimidin-4-yl}amino)-2-oxo-1-(propan-2-yl)-1,2-dihydroquinolin-3-yl]oxy}-N-methylacetamide], for which the IC50 at BCL6 [1] was less than 0.01 µM. The compound further registered a Dmax on BCL6 [2] of 50 to 70%.
In the case of `CNC(=O)COc1cc2cc(Nc3nc(N4CCC(O[C@H]5C[C@H](N6CCN(c7ccc8c(c7)C(=O)N(C7CCC(=O)NC7=O)C8=O)CC6)C5)CC4)ncc3Cl)ccc2n(C(C)C)c1=O` (stereo partly drawn) [compound 531, 2-({6-[(5-chloro-2-{4-[(1r,3r)-3-{4-[2-(2,6-dioxopiperidin-3-yl)-1,3-dioxo-2,3-dihydro-1H-isoindol-5-yl]piperazin-1-yl}cyclobutoxy]piperidin-1-yl}pyrimidin-4-yl)amino]-2-oxo-1-(propan-2-yl)-1,2-dihydroquinolin-3-yl}oxy)-N-methylacetamide], the concentration for half-maximal inhibition (IC50) at BCL6 [1] is less than 0.01 µM. For the same compound, the Dmax at BCL6 [2] is less than 50%.
For `CNC(=O)COc1cc2cc(Nc3nc(N4CCC5(CCN(CC6CCN(c7cccc8c7C(=O)N(C7CCC(=O)NC7=O)C8=O)CC6)CC5)CC4)ncc3Cl)ccc2n(C(C)C)c1=O` (stereo not drawn) [compound 533, 2-{[6-({5-chloro-2-[9-({1-[2-(2,6-dioxopiperidin-3-yl)-1,3-dioxo-2,3-dihydro-1H-isoindol-4-yl]piperidin-4-yl}methyl)-3,9-diazaspiro[5.5]undecan-3-yl]pyrimidin-4-yl}amino)-2-oxo-1-(propan-2-yl)-1,2-dihydroquinolin-3-yl]oxy}-N-methylacetamide] the same measures were less than 0.01 µM and not below 70%.
Consider `CNC(=O)COc1cc2cc(Nc3nc(N4CCC(CN5CCC6(CCN(c7ccc8c(c7)C(=O)N(C7CCC(=O)NC7=O)C8=O)C6)C5)CC4)ncc3Cl)ccc2n(C(C)C)c1=O` (stereo not drawn) [compound 534, 2-{[6-({5-chloro-2-[4-({7-[2-(2,6-dioxopiperidin-3-yl)-1,3-dioxo-2,3-dihydro-1H-isoindol-5-yl]-2,7-diazaspiro[4.4]nonan-2-yl}methyl)piperidin-1-yl]pyrimidin-4-yl}amino)-2-oxo-1-(propan-2-yl)-1,2-dihydroquinolin-3-yl]oxy}-N-methylacetamide], for which the IC50 at BCL6 [1] is less than 0.01 µM. Also, the greatest degradation seen (Dmax) at BCL6 [2] is not below 70%.
On to `CNC(=O)COc1cc2cc(Nc3nc(N4CCC(O[C@H]5C[C@H](N6CCC(c7ccc8c(c7)C(=O)N(C7CCC(=O)NC7=O)C8=O)CC6)C5)CC4)ncc3Cl)ccc2n(C)c1=O` (stereo partly drawn) [compound 536, 2-({6-[(5-chloro-2-{4-[(1r,3r)-3-{4-[2-(2,6-dioxopiperidin-3-yl)-1,3-dioxo-2,3-dihydro-1H-isoindol-5-yl]piperidin-1-yl}cyclobutoxy]piperidin-1-yl}pyrimidin-4-yl)amino]-1-methyl-2-oxo-1,2-dihydroquinolin-3-yl}oxy)-N-methylacetamide], for which the IC50 on BCL6 [1] is less than 0.01 µM. This compound also came in with a Dmax on BCL6 [2] not below 70%.
As for `CNC(=O)COc1cc2cc(Nc3nc(N4CCN(C[C@H]5C[C@H](N6CCN(c7cccc8c7C(=O)N(C7CCC(=O)NC7=O)C8=O)CC6)C5)CC4)ncc3Cl)ccc2n(C(C)C)c1=O` (stereo partly drawn) [compound 537, 2-[(6-{[5-chloro-2-(4-{[(1r,3r)-3-{4-[2-(2,6-dioxopiperidin-3-yl)-1,3-dioxo-2,3-dihydro-1H-isoindol-4-yl]piperazin-1-yl}cyclobutyl]methyl}piperazin-1-yl)pyrimidin-4-yl]amino}-2-oxo-1-(propan-2-yl)-1,2-dihydroquinolin-3-yl)oxy]-N-methylacetamide], the concentration for half-maximal inhibition (IC50) at BCL6 [1] is less than 0.01 µM. On BCL6 [2], this compound had a maximal degradation (Dmax) of less than 50%.
Regarding `CNC(=O)COc1cc2cc(Nc3nc(N4CCC(CN5CC(N6CCC(c7ccc8c(c7)C(=O)N(C7CCC(=O)NC7=O)C8=O)CC6)C5)CC4)ncc3Cl)ccc2n(C(C)C)c1=O` (stereo not drawn) [compound 538, 2-({6-[(5-chloro-2-{4-[(3-{4-[2-(2,6-dioxopiperidin-3-yl)-1,3-dioxo-2,3-dihydro-1H-isoindol-5-yl]piperidin-1-yl}azetidin-1-yl)methyl]piperidin-1-yl}pyrimidin-4-yl)amino]-2-oxo-1-(propan-2-yl)-1,2-dihydroquinolin-3-yl}oxy)-N-methylacetamide], at BCL6 [1], the IC50 is less than 0.01 µM. The Dmax at BCL6 [2] is not below 70%.
